Counter-ions that a name gives are not always drawn.
How the values were obtained:
[1] = tested on: Aβ1-40 production and/or secretion in human neuroblastoma IMR-32 cells; assay: Inhibition of amyloid-β protein production in IMR-32 cells, EIA for Aβ1-40; format: cell-based; details: test compound 10 μM, 24 hours incubation, effect to inhibit production and/or secretion as percentage relative to the control
Description: (§1) Compounds of the present invention were tested for effect of inhibiting amyloid-β protein production in human neuroblastoma IMR-32 cells. Herein referred to were references, Science, 264, 1336 (1994) and Biochemistry, 34, 10272 (1995), etc.
(§2) IMR-32 cells were cultivated in a flask (Falcon, 750 ml) containing 10% FCS/DMEM medium, in an atmosphere of 10% CO2/90% air, at 37° C. to be in confluence. The cultivated cells were seeded into a 48-well plate in a density of 2.5×10^5 cells/well, and incubated therein for 3 days under the same condition as above. Then, the culture medium was removed through suction.
(§3) A dimethylformamide (DMF) solution containing a test compound was dissolved in 0.5 ml of 0.5% BSA/DMEM, and added to the plate, and the cells were incubated for further 24 hours. As the control, the same volume of DMF but not containing the test compound was dissolved in 0.5 ml of 0.5% BSA/DMEM, and added to the plate. […]
(§4) The plate was washed three times with PBS, and 100 μl of an HRP-labeled secondary antibody (BA-27 antibody or BC-05 antibody labeled with HRP, horseradish peroxidase) as dissolved in a buffer for secondary reaction (20 mM phosphate buffer, pH 7.0; 400 mM NaCl; 2 mM EDTA; 1% BSA) was added thereto. […] Then, using a plate reader (MTP-32 Microplate Reader, by Corona Co.), the sample on the plate was subjected to calorimetric determination (at 450 nm). […]

[2] = tested on: Aβ1-42 production and/or secretion in human neuroblastoma IMR-32 cells; assay: Inhibition of amyloid-β protein production in IMR-32 cells, EIA for Aβ1-42; format: cell-based; details: test compound 10 μM, 24 hours incubation, effect to inhibit production and/or secretion as percentage relative to the control
Description: as §1, §2, §3, §4

[3] = tested on: mouse; assay: Experiment of acute toxicity, oral administration; format: in vivo; details: dose of more than 1000 mg/kg
Description: In addition, compounds (I) and (I′) have low toxicity. […] Moreover, compounds (I) and (I′) easily penetrate into the brain following the oral administration.

SMILES	melting point	other results
CC(=O)N(Cc1ccc(-c2ccccc2)cc1)c1ccc2c(c1)CCC(CN(C)C)C2.Cl (stereo not shown)	179 to 182 °C	–
Cl.c1ccc(C2CCN(CCC3CCc4cc(OCc5ccc6ccccc6c5)ccc4C3)CC2)cc1 (stereo not shown)	229 to 234 °C (dec.)	–
Cc1ccc(-c2ccc(COc3ccc4c(c3)CCC(CN(C)C)C4)cc2)cc1.Cl (stereo not shown)	226 to 228 °C	–
CN(C)CC1CCc2cc(OCc3ccc4ccccc4c3)ccc2C1.Cl (stereo not shown)	228 to 229 °C	–
CN(C)CC1CCc2cc(OCc3ccc(-c4ccc(C=O)cc4)cc3)ccc2C1.Cl (stereo not shown)	234 to 235 °C	–
CSc1ccc(-c2ccc(COc3ccc4c(c3)CCC(CN(C)C)C4)cc2)cc1.Cl (stereo not shown)	235 to 237 °C	–
CN(C)CC1CCc2cc(OCc3ccc(-c4ccc(F)cc4)cc3)ccc2C1.Cl (stereo not shown)	223 to 234 °C	–
CN(C)CC1CCc2cc(OCc3ccc(-c4cccc([N+](=O)[O-])c4)cc3)ccc2C1.Cl (stereo not shown)	223 to 234 °C	–
COc1cccc(-c2ccc(COc3ccc4c(c3)CCC(CN(C)C)C4)cc2)c1.Cl (stereo not shown)	207 to 208 °C	–
COc1ccccc1-c1ccc(COc2ccc3c(c2)CCC(CN(C)C)C3)cc1.Cl (stereo not shown)	140 to 141 °C	–
CN(C)CC1CCc2cc(OCc3ccc(-c4cc(C(F)(F)F)cc(C(F)(F)F)c4)cc3)ccc2C1.Cl (stereo not shown)	196 to 197 °C	–
CN(C)CC1CCc2cc(OCc3ccc(-c4ccsc4)cc3)ccc2C1.Cl (stereo not shown)	222 to 223 °C	–
CN(C)CC1CCc2cc(OCc3ccc(-c4cccs4)cc3)ccc2C1.Cl (stereo not shown)	227 to 228 °C	–
CN(C)CC1CCc2cc(OCc3ccc(-c4ccccc4C#N)cc3)ccc2C1.Cl (stereo not shown)	202 to 203 °C	–
CN(C)CC1CCc2cc(OCc3cccc(-c4ccccc4)c3)ccc2C1.Cl (stereo not shown)	186 to 190 °C	–
COc1ccc(-c2cccc(COc3ccc4c(c3)CCC(CN(C)C)C4)c2)cc1.Cl (stereo not shown)	182 to 183 °C	–

SMILES	melting point	other results
CN(C)CC1CCc2cc(OCc3cccc(-c4ccc(F)cc4)c3)ccc2C1.Cl (stereo not shown)	171 to 172 °C	–
CN(C)CC1CCc2cc(OCc3ccccc3-c3ccccc3)ccc2C1.Cl (stereo not shown)	173 to 174 °C	–
COc1ccc(-c2ccccc2COc2ccc3c(c2)CCC(CN(C)C)C3)cc1.Cl (stereo not shown)	170 to 171 °C	–
CN(C)CC1CCc2cc(OCc3ccccc3-c3ccc(F)cc3)ccc2C1.Cl (stereo not shown)	172 to 174 °C	–
Cl.c1ccc(-c2ccc(COc3ccc4c(c3)CCC(CCN3CCCC3)C4)cc2)cc1 (stereo not shown)	197 to 199 °C	–
CN(C)CC1CCc2ccc(OCc3ccc(-c4ccccc4)cc3)cc2C1.Cl (stereo not shown)	232 to 233 °C	–
Cl.OC1(O)CCN(CCC2CCc3cc(OCc4ccc(-c5ccccc5)cc4)ccc3C2)CC1 (stereo not shown)	155 to 156 °C	–
CN(C)CCCCC1CCc2cc(OCc3ccc(-c4ccccc4)cc3)ccc2C1.Cl (stereo not shown)	175 to 177 °C	–
CN(C)CC1CCc2ccc(OCc3ccc4ccccc4c3)cc2C1.Cl (stereo not shown)	201 to 202 °C	–
CNCC1CCc2cc(OCc3ccc(-c4ccccc4)cc3)ccc2C1.Cl (stereo not shown)	189 to 190 °C	–
Cl.c1ccc2cc(COc3ccc4c(c3)CCC(CN3CCCCC3)C4)ccc2c1 (stereo not shown)	215 to 218 °C (dec.)	–
CCCN(CCC)CC1CCc2cc(OCc3ccc(-c4ccccc4)cc3)ccc2C1.Cl (stereo not shown)	164 to 166 °C	–
CN(C)CC1CCc2cc(OCc3ccc(-c4cccnc4)cc3)ccc2C1 (stereo not shown) (as salt: hydrochloride)	212 to 213 °C	–
c1ccc(-c2ccc(COc3ccc4c(c3)CCC(CCN3CCC(N5CCCCC5)CC3)C4)cc2)cc1 (stereo not shown) (as salt: hydrochloride)	288 to 291 °C	–
COc1ccc(-c2ccc(COc3ccc4c(c3)CCC(CCN(C)C)C4)cc2)cc1.Cl (stereo not shown) [44]	182 to 185 °C	–
CN(C)CCC1CCc2cc(OCc3ccc(-c4ccccc4)cc3)ccc2C1.Cl (stereo not shown) [Example 12, 6-(4-Biphenylyl)methoxy-2-[2-(N,N-dimethylamino)ethyl]tetralin hydrochloride]	–	Aβ1–40 (%) [1]: 74%; Aβ1–42 (%) [2]: 75%; acute toxicity (death) [3]: no mouse was dead

Reference: patent US7256204B2, “Amine compounds, their production and use” (Takeda Pharmaceutical Company Limited, priority 1997, dated 2007)
